In US20250276977A1, “TYK2 INHIBITORS AND USES THEREOF” (Alumis Inc., priority 2019, published 2025):
Read-outs that look alike come from different tables or passages of the source.

Test system: INFα induced pSTAT5
Experiment: INFα induced pSTAT5 in human PBMC
Format: cell-based
Conditions: INFα 5000 units/ml, read-out: p-STAT5 IC50
Protocol: Fresh Human PBMCs were resuspended in RPMI 1640 medium with 10% FBS. Cells were seeded in a round bottom 96-well plate at the concentration of 200,000 cells/well. A 10-point dilution series of test compound (top dose 10 uM, 1:5 dilution) was added to the well using the liquid dispenser (Tecan D300e) and incubated for 1 hour at 37 C. Then human INFα recombinant protein (R&D Systems) was added to the well at the final concentration of 5000 units/ml and incubated for 15 minutes at 37 C. Cell lysates were prepared and analyzed by Phospho STAT3 (Tyr705) cellular kit (Cisbio) or Phospho STAT5 (Tyr693) Kit (Meso Scale Discovery) following manufacturer's protocol.
For calculation of the inhibition rate, the relative pSTAT signal of each well=pSTAT signal of each well−the average pSTAT signal of baseline.
The inhibition %=(the average pSTAT signal of INFα treatment wells—the relative of pSTAT signal in each compound containing well)/the average pSTAT signal of INFα treatment wells * 100%
The curve was plotted as the inhibition % (y-axis) vs. compounds concentration (x-axis) and was fitted with log(inhibitor) vs. normalized response—Variable slope by GraphPad Prism7.0.

Row | SMILES | IC50 (Homo sapiens, PBMC) | IC50
1 | CNc1cc2nn3c(cnc13)C(=O)N[C@H](C)COCc1cc(c(=O)n(C)n1)N2 [Example 58, (15E,34E,7R)-31,7-dimethyl-18-(methylamino)-31,36-dihydro-5-oxa-2,8-diaza-1(6,3)-imidazo[1,2-b]pyridazina-3(5,3)-pyridazinacyclononaphane-36,9-dione] | 7.7 nM | 
2 | CNc1cc2nc3c(cnn13)C(=O)N[C@H](C)COCc1ccc(F)c(c1)N2 [Example 56, (R, 1^3E, 1^4E)-3^6-fluoro-7-methyl-1^7-(methylamino)-5-oxa-2,8-diaza-1(5,3)-pyrazolo[1,5-a]pyrimidina-3(1,3)-benzenacyclononaphan-9-one] | 28.8 nM | 
3 | CNc1cc2nn3c(cnc13)C(=O)NCC(C)OCc1ccc(OC)c(c1)N2 (centres unmarked) [Example 8] | 13.9 nM | 
4 | CNc1cc2nc3c(cnn13)C(=O)N[C@H](C)COCc1cc(c3oc(C)nc3c1)N2 [Example 34] | 2.5 nM | 
5 | CNc1cc2nc3c(cnn13)C(=O)N[C@H](C)COCc1cc(F)c(OC)c(c1)N2 [Example 62] | 3.8 nM | 
6 | COc1ccc2nc1Nc1cc(N)n3ncc(c3n1)C(=O)N[C@H](C)COC2 [Example 55, (R, 1^3E, 1^4E)-33-methoxy-7-methyl-1^7-(methylamino)-5-oxa-2,8-diaza-1(5,3)-pyrazolo[1,5-a]pyrimidina-3(2,6)-pyridinacyclononaphan-9-one] | > 200 nM | 
7 | CNc1cc2nn3c(cnc13)C(=O)NCCCOc1cnc(OC)c(c1)N2 [Example 5] | 151 nM | 
8 | CNc1cc2nc3c(cnn13)C(=O)N[C@H](C)COc1ccc(OC)c(c1)N2 [Example 38] | > 200 nM | 
9 | CNc1cc2nc3c(cnn13)C(=O)N[C@H](C)C(C)OCc1ccc(OC)c(c1)N2 (single isomer, unassigned) [Example 32] |  | 0.7 nM
10 | CNc1cc2nc3c(cnn13)C(=O)N[C@@H](C)C(C)OCc1ccc(OC)c(c1)N2 (some centres unmarked) [Example 30] | > 200 nM | 
11 | CNc1cc2nc3c(cnn13)C(=O)N[C@H](C)COCc1cc(c(OC)cc1F)N2 [Example 52, (R, 1^3E, 1^4E)-3^4-fluoro-3^6-methoxy-7-methyl-1^7-(methylamino)-5-oxa-2,8-diaza-1(5,3)-pyrazolo[1,5-a]pyrimidina-3(1,3)-benzenacyclononaphan-9-one] | 5.9 nM | 
12 | CNc1cc2nc3c(cnn13)C(=O)N[C@H](C)COCc1ccc(OC)c(c1)N2 [Example 25] | 2.1 nM | 
13 | CNc1cc2nc3c(cnn13)C(=O)N[C@H](C)COCc1cc(c3c(c1)nnn3C)N2 [Example 37] | 90.1 nM | 
14 | CNc1cc2nn3c(cnc13)C(=O)N[C@H](C)COCc1cc(F)c(OC)c(c1)N2 [Example 18, (7R,E)-3^5-fluoro-3^6-methoxy-7-methyl-1^8-(methylamino)-5-oxa-2,8-diaza-1(6,3)-imidazo[1,2-b]pyridazina-3(1, 3)-benzenacyclononaphan-9-one] | 1.3 nM | 
15 | CNc1cc2nc3c(cnn13)C(=O)N[C@H](C)COCc1cc(nc(N3CCCC3=O)c1)N2 [Example 49] | 1.7 nM | 
16 | CNc1cc2nc3c(cnn13)C(=O)N[C@H](C)COCc1cnc(OC)c(c1)N2 [Example 26] |  | > 200 nM
17 | CNc1cc2nc3c(cnn13)C(=O)N[C@H](C)COCc1cc(c(OC)nn1)N2 [Example 59, (R,1^3E,1^4E)-3^6-methoxy-7-methyl-1^7-(methylamino)-5-oxa-2,8-diaza-1(5,3)-pyrazolo[1,5-a]pyrimidina-3(5,3)-pyridazinacyclononaphan-9-one] | 39.1 nM | 
18 | CNc1cc2nc3c(cnn13)C(=O)N[C@H](C)COCc1cc(F)cc(c1)N2 [Example 46] | 2.8 nM | 
19 | CNc1cc2nc3c(cnn13)C(=O)NC(C)COCc1ccc(OC)c(c1)N2 (centres unmarked) [Example 12] | 2.2 nM | 
20 | CNc1cc2nc3c(cnn13)C(=O)N[C@H](C)COCc1cnc(OC)c(c1)N2 [Example 47] |  | 2.4 nM
21 | CNc1cc2nc3c(cnn13)C(=O)N[C@H](C)COCc1cc(c3nnn(C)c3c1)N2 [Example 36] | 0.7 nM | 

Row | SMILES | IC50 (Homo sapiens, PBMC) | IC50
22 | CNc1cc2nc3c(cnn13)C(=O)N[C@H](C)COCc1cc(cc(OC)c1)N2 [Example 45] | 1.1 nM | 
23 | CNc1cc2nc3c(cnn13)C(=O)N[C@H](C)COCc1ccc(OC(F)(F)F)c(c1)N2 [Example 43] | 3.8 nM | 
24 | CNc1cc2nn3c(cnc13)C(=O)NC(C)COCc1cc(c(OC)cc1F)N2 (centres unmarked) [Example 16] | 3.6 nM | 
25 | CNc1cc2nn3c(cnc13)C(=O)NCCOC(C)c1ccc(OC)c(c1)N2 (centres unmarked) [Example 13] | 460 nM | 
26 | CNc1cc2nn3c(cnc13)C(=O)NC1(CC1)COCc1ccc(OC)c(c1)N2 [Example 20, (E)-6′-methoxy-8′-(methylamino)spiro[cyclopropane-1,7′-5-oxa-2,8-diaza-1(6,3)-imidazo[1,2-b]pyridazina-3(1,3)-benzenacyclononaphan]-9′-one] | 15.3 nM | 
27 | CNc1cc2nc3c(cnn13)C(=O)N[C@H](C)COCc1cc(c(=O)n(-c3ccccn3)c1)N2 [Example 28] | 8.3 nM | 
28 | CNc1cc2nc3c(cnn13)C(=O)N[C@H](C)COCc1cc(Br)c(OC)c(c1)N2 [Example 48] | 16.7 nM | 
29 | CNc1cc2nn3c(cnc13)C(=O)NC(C)CCn1ncc3cc(OC)c(cc31)N2 (centres unmarked) [Example 21, (E)-3^5-methoxy-6-methyl-1^8-(methylamino)-31H-2,7-diaza-1(6,3)-imidazo [1,2-b]pyridazina-3(6,1)-indazolacyclooctaphan-8-one] | 102 nM | 
30 | CNc1cc2nn3c(cnc13)C(=O)N[C@H](C)COCc1ccc(OC)c(c1)N2 [Example 42] | 13.6 nM | 
31 | CNc1cc2nn3c(cnc13)C(=O)N[C@H](C)COCc1cnc(OC)c(c1)N2 [Example 14] | 3 nM | 
32 | CNc1cc2nn3c(cnc13)C(=O)NCCOCc1cccc(OC)c1N2 [Example 9] | 923 nM | 
33 | CNC(=O)c1ccc2cc1Nc1cc(NC)n3ncc(c3n1)C(=O)N[C@H](C)COC2 [Example 41] | 3.6 nM | 
34 | CNc1cc2nn3c(cnc13)C(=O)N[C@H](C)COCc1nc(C)cc(n1)N2 [Example 50, (7R,E)-3^6,7-dimethyl-1^8-(methylamino)-5-oxa-2,8-diaza-1(6,3)-imidazo[1,2-b]pyridazina-3(4,2)-pyrimidinacyclononaphan-9-one] | > 1000 nM | 
35 | CNc1cc2nc3c(cnn13)C(=O)N[C@H](C)COCc1ccc(C#N)c(c1)N2 [Example 40] | 2.4 nM | 
36 | CNc1cc2nc3c(cnn13)C(=O)N[C@H](C)COCc1cc(c(OC)cn1)N2 [Example 27] | 7.2 nM | 
37 | CNc1cc2nn3c(cnc13)C(=O)N[C@H]1C[C@H](C1)OCc1ccc(OC)c(c1)N2 [Example 22] | 10.7 nM | 
38 | CNc1cc2nn3c(cnc13)C(=O)N[C@@H](C)COCc1ccc(OC)c(c1)N2 [Example 11] | 436 nM | 
39 | CNc1cc2nc3c(cnn13)C(=O)N[C@H](C)C(C)OCc1ccc(OC)c(c1)N2 (single isomer, unassigned) [Example 33] |  | 42.8 nM
40 | CNc1cc2nc3c(cnn13)C(=O)N[C@H](C)COCc1cc(c3nccn3c1)N2 [Example 60, (R,1^3E,1^4E,3^7E)-7-methyl-1^7-(methylamino)-5-oxa-2,8-diaza-1(5,3)-pyrazolo[1,5-a]pyrimidina-3(8,6)-imidazo[1,2-a]pyridinacyclononaphan-9-one] | 3.8 nM | 
41 | CNc1cc2nn3c(cnc13)C(=O)N[C@H](C)COCc1cc(c(OC)cc1F)N2 [Example 17, (E)-3^4-fluoro-3^6-methoxy-7-methyl-1^8-(methylamino)-5-oxa-2,8-diaza-1(6,3)-imidazo[1,2-b]pyridazina-3(1,3)-benzenacyclononaphan-9-one] | 1 nM | 
